27 compounds from patent US20100286181A1, “PYRROLE DERIVATIVES WITH ANTIBACTERIAL ACTIVITY” (ASTRAZENECA AB, priority 2006, published 2010) can be followed below.

In the assay the target is GyrB ATPase activity (E. coli GyrA, E. coli GyrB) (Escherichia coli, UniProt P0AES6). The assay can be described thus: GyrB ATPase inhibition activity assay (ammonium molybdate/malachite green phosphate detection). The class given is biochemical. The settings on record: figure quoted may be an average of two or more results. How it is done: Compounds may be tested for inhibition of GyrB ATPase activity using an ammonium molybdate/malachite green-based phosphate detection assay (Lanzetta, P. A., L. J. Alvarez, P. S. Reinach, and O. A. Candia, 1979, 100: 95-97). Assays can be performed in multiwell plates in 100 μl reactions containing: 50 mM HEPES buffer pH 7.5, 75 mM ammonium acetate, 5.5 mM magnesium chloride, 0.5 mM ethylenediaminetetraacetic acid, 5% glycerol, 1 mM 1,4-Dithio-DL-threitol, 200 nM bovine serum albumin, 5 μg/ml sheared salmon sperm DNA, 2.5 nM E. coli GyrA, 2.5 nM E. coli GyrB, 250 μM ATP, and compound in dimethylsulfoxide. Reactions can be quenched with 150 μl of ammonium molybdate/malachite green detection reagent containing 1.2 mM malachite green hydrochloride, 8.5 mM ammonium molybdate tetrahydrate, and 1 M hydrochloric acid.
Compounds of the Examples could be expected to have IC50 values of <200 μg/ml in one or both assays described herein above. For Example the following results were obtained in a GyrB ATPase inhibition activity assay substantially similar to the above wherein the figure quoted may be an average of two or more results
As for `Cc1[nH]c(C(=O)N[C@H]2CCN(c3ncc(C(N)=O)s3)C[C@H]2n2ccnc2)c(Cl)c1Cl` (racemic) [Example 47, cis(±)2-[4-{[(3,4-Dichloro-5-methyl-1H-pyrrol-2-yl)carbonyl]amino}-3-(1H-imidazol-1-yl)piperidin-1-yl]-1,3-thiazole-5-carboxamide], the IC50 (usually the point on the concentration scale where inhibition reaches its midpoint) was determined as 25.7 nM.
As for `Cc1[nH]c(C(=O)N[C@@H]2CCN(c3ncc(C(=O)O)s3)C[C@@H]2n2cc(Cl)nn2)c(Cl)c1Cl` [Example 107], the figure is < 9.77 nM; as for `COCC(COC)NC(=O)c1nc(N2CC[C@@H](NC(=O)c3[nH]c(C)c(Cl)c3Cl)[C@@H](n3cc(CC#N)nn3)C2)sc1C(=O)O` [Example 111], < 9.77 nM.
Consider `CNC(=O)c1nc(N2CCC(NC(=O)c3[nH]c(C)c(Cl)c3Cl)/C(=N/OC)C2)sc1C(=O)O` (stereo not drawn) [Example 26, 2-[(3E)-4-{[(3,4-Dichloro-5-methyl-1H-pyrrol-2-yl)carbonyl]amino}-3-(methoxyimino)piperidin-1-yl]-4-[(methylamino)carbonyl]-1,3-thiazole-5-carboxylic acid], for which the IC50 is < 9.77 nM.
Compound `COC(=O)c1cnc(N2CCC(NC(=O)c3[nH]c(C)c(Cl)c3Cl)C3(C2)OCCCO3)s1` (stereo not drawn) [Example 6, Methyl 2-(11-{[(3,4-dichloro-5-methyl-1H-pyrrol-2-yl)carbonyl]amino}-1,5-dioxa-8-azaspiro[5.5]undec-8-yl)-1,3-thiazole-5-carboxylate] yielded an IC50 of 79.1 nM.
Turning to `Cc1[nH]c(C(=O)N[C@@H]2CCN(c3ncc(C(=O)O)s3)C[C@@H]2N=[N+]=[N-])c(Cl)c1Cl` [Example 102], the concentration for half-maximal inhibition (IC50) was < 9.77 nM.
`CCOC(=O)c1cccc2nc(N3CC[C@@H](NC(=O)c4[nH]c(C)c(Cl)c4Cl)[C@@H](n4ccnn4)C3)sc12` [Example 123, Ethyl 2-[(3S,4R)-4-{[(3,4-dichloro-5-methyl-1H-pyrrol-2-yl)carbonyl]amino}-3-(1H-1,2,3-triazol-1-yl)piperidin-1-yl]-1,3-benzothiazole-7-carboxy late] gave an IC50 of 218 nM.
In the case of `CC(=O)c1nc(N2CCC(NC(=O)c3[nH]c(C)c(Cl)c3Cl)C3(C2)OCCO3)sc1C(=O)O` (stereo not drawn) [Example 12, 4-Acetyl-2-(10-{[(3,4-dichloro-5-methyl-1H-pyrrol-2-yl)carbonyl]amino}-1,4-dioxa-7-azaspiro[4.5]dec-7-yl)-1,3-thiazole-5-carboxylic acid], the IC50 was < 83.1 nM.
Under `COCCn1ccnc1-c1nc(N2CCC(NC(=O)c3[nH]c(C)c(Cl)c3Cl)/C(=N/OC)C2)sc1C(=O)OC` (stereo not drawn) [Example 36, Methyl 2-[(3E)-4-{[(3,4-dichloro-5-methyl-1H-pyrrol-2-yl)carbonyl]amino}-3-(methoxyimino)piperidin-1-yl]-4-[1-(2-methoxyethyl)-1H-imidazol-2-yl]-1,3-thiazole-5-carboxylate] stands 75.5 nM; under `CNC(=O)c1nc(N2CCC(NC(=O)c3[nH]c(C)c(Cl)c3Cl)C3(C2)OCCCO3)sc1C(=O)OC(C)C` (stereo not drawn) [Example 8, Isopropyl 2-(11-{[(3,4-dichloro-5-methyl-1H-pyrrol-2-yl)carbonyl]amino}-1,5-dioxa-8-azaspiro[5.5]undec-8-yl)-4-[(methylamino)carbonyl]-1,3-thiazole-5-carboxylate], 73.6 nM.
`Cc1[nH]c(C(=O)N[C@H]2CCN(c3ncc(C(=O)O)s3)C[C@H]2N)c(Cl)c1Cl` (racemic) [Example 68, cis(±)2-(3-Amino-4-{[(3,4-dichloro-5-methyl-1H-pyrrol-2-yl)carbonyl]amino}piperidin-1-yl)-1,3-thiazole-5-carboxylic acid] came in with an IC50 of 291 nM.
As for `COC(=O)c1cnc(N2CC[C@@H](NC(=O)c3[nH]c(C)c(Cl)c3Cl)[C@@H](n3cc(Cl)nn3)C2)s1` [Example 71, Methyl 2-[(3S,4R)-3-(4-chloro-1H-1,2,3-triazol-1-yl)-4-[(3,4-dichloro-5-methyl-1H-pyrrole-2-carbonyl)amino]-1-piperidinyl]-1,3-thiazole-5-carboxylate], the figure is 40 nM; as for `Cc1[nH]c(C(=O)N[C@H]2CCN(c3ncc(C(=O)O)s3)C[C@H]2n2ccnc2)c(Cl)c1Cl` (racemic) [Example 42, cis(±)2-[4-{[(3,4-Dichloro-5-methyl-1H-pyrrol-2-yl)carbonyl]amino}-3-(1H-imidazol-1-yl)piperidin-1-yl]-1,3-thiazole-5-carboxylic acid], < 75.6 nM; as for `CC(=O)c1nc(N2CCC(NC(=O)c3[nH]c(C)c(Cl)c3Cl)C3(C2)OCCCO3)sc1C(=O)O` (stereo not drawn) [Example 19, 4-Acetyl-2-(11-{[(3,4-dichloro-5-methyl-1H-pyrrol-2-yl)carbonyl]amino}-1,5-dioxa-8-azaspiro[5.5]undec-8-yl)-1,3-thiazole-5-carboxylic acid], < 9.77 nM.
In the case of `COCn1ccnc1-c1nc(N2CCC(NC(=O)c3[nH]c(C)c(Cl)c3Cl)/C(=N/OC)C2)sc1C(=O)O` (stereo not drawn) [Example 28, 2-[(3E)-4-{[(3,4-Dichloro-5-methyl-1H-pyrrol-2-yl)carbonyl]amino}-3-(methoxyimino)piperidin-1-yl]-4-[1-(methoxymethyl)-1H-imidazol-2-yl]-1,3-thiazole-5-carboxylic acid], the IC50 is < 9.77 nM.
`Cc1[nH]c(C(=O)N[C@H]2CCN(c3ncc(C(=O)O)s3)C[C@H]2n2ccnn2)c(Cl)c1Cl` (racemic) [Example 119, cis(±)2-[4-{[(3,4-Dichloro-5-methyl-1H-pyrrol-2-yl)carbonyl]amino}-3-(1H-1,2,3-triazol-1-yl)piperidin-1-yl]-1,3-thiazole-5-carboxylic acid]: the IC50 is 12.3 nM.
Under `CCOC(=O)c1sc(N2CCC(NC(=O)c3[nH]c(C)c(Cl)c3Cl)C3(C2)OCCCO3)nc1C(=O)NCCOC` (stereo not drawn) [Example 7, Ethyl 2-(11-{[(3,4-dichloro-5-methyl-1H-pyrrol-2-yl)carbonyl]amino}-1,5-dioxa-8-azaspiro[5.5]undec-8-yl)-4-{[(2-methoxyethyl)amino]carbonyl}-1,3-thiazole-5-carboxylate] stands 18.5 nM; under `COCC(COC)NC(=O)c1nc(N2CC[C@@H](NC(=O)c3[nH]c(C)c(Cl)c3Cl)[C@@H](n3cc(Br)nn3)C2)sc1C(=O)O` [Example 113], < 9.77 nM.
With `COCc1cn([C@H]2CN(c3nc(C(=O)NC(COC)COC)c(C(=O)O)s3)CC[C@H]2NC(=O)c2[nH]c(C)c(Cl)c2Cl)nn1` [Example 116], the IC50 is < 9.77 nM.
Under `COC1COC2(CN(c3ncc(C(=O)O)s3)CCC2NC(=O)c2[nH]c(C)c(Cl)c2Cl)OC1` [Example 53, 2-((rel-3S,6s,11R)-11-{[(3,4-Dichloro-5-methyl-1H-pyrrol-2-yl)carbonyl]amino}-3-methoxy-1,5-dioxa-8-azaspiro[5.5]undec-8-yl)-1,3-thiazole-5-carboxylic acid] stands < 9.77 nM; under `Cc1[nH]c(C(=O)N[C@H]2CCN(c3ncc(C(=O)O)s3)C[C@H]2n2cnc(Cl)n2)c(Cl)c1Cl` (racemic) [Example 45, cis(±)2-(3-(3-Chloro-1H-1,2,4-triazol-1-yl)-4-{[(3,4-dichloro-5-methyl-1H-pyrrol-2-yl)carbonyl]amino}piperidin-1-yl)-1,3-thiazole-5-carboxylic acid], < 9.77 nM; under `Cc1[nH]c(C(=O)N[C@H]2CCN(c3ncc(C(=O)O)s3)C[C@H]2n2cncn2)c(Cl)c1Cl` (racemic) [Example 43, cis(±)2-[4-{[(3,4-Dichloro-5-methyl-1H-pyrrol-2-yl)carbonyl]amino}-3-(1H-1,2,4-triazol-1-yl)piperidin-1-yl]-1,3-thiazole-5-carboxylic acid], < 9.77 nM.
As for `COC(=O)c1cnc(N2CC[C@H](NC(=O)c3[nH]c(C)c(Cl)c3Cl)[C@H](n3cncn3)C2)s1` (racemic) [Example 39, cis(±)Methyl 2-[4-{[(3,4-dichloro-5-methyl-1H-pyrrol-2-yl)carbonyl]amino}-3-(1H-1,2,4-triazol-1-yl)piperidin-1-yl]-1,3-thiazole-5-carboxylate], inhibition was half-maximal at 33.4 nM (IC50).
As for `COCCNC(=O)c1nc(N2CC[C@@H](NC(=O)c3[nH]c(C)c(Cl)c3Cl)[C@@H](n3cc(C)nn3)C2)sc1C(=O)O` [Example 104], the figure is < 9.77 nM; as for `Cc1cn([C@@H]2CN(c3ncc(C(=O)O)s3)CC[C@@H]2NC(=O)c2[nH]c(C)c(Cl)c2Cl)nn1` (racemic) [Example 122, cis(±)2-[4-{[(3,4-Dichloro-5-methyl-1H-pyrrol-2-yl)carbonyl]amino}-3-(4-methyl-1H-1,2,3-triazol-1-yl)piperidin-1-yl]-1,3-thiazole-5-carboxylic acid], < 9.77 nM.
As for `Cc1[nH]c(C(=O)NC2CCN(c3ncc(C(=O)O)s3)CC23OCCO3)c(Cl)c1Cl` (stereo not drawn) [Example 11, 2-(10-{[(3,4-Dichloro-5-methyl-1H-pyrrol-2-yl)carbonyl]amino}-1,4-dioxa-7-azaspiro[4.5]dec-7-yl)-1,3-thiazole-5-carboxylic acid], the figure is 17.8 nM.
On to `CO/N=C1\CN(c2nc(-c3ncnn3C)c(C(=O)O)s2)CCC1NC(=O)c1[nH]c(C)c(Cl)c1Cl` (stereo not drawn) [Example 25, 2-[(3E)-4-{[(3,4-Dichloro-5-methyl-1H-pyrrol-2-yl)carbonyl]amino}-3-(methoxyimino)piperidin-1-yl]-4-(1-methyl-1H-1,2,4-triazol-5-yl)-1,3-thiazole-5-carboxylic acid], for which the IC50 is < 9.77 nM.
